This assay deals with T1, RXFP1 (Homo sapiens, UniProt Q9HBX9).
T1 construct: OVCAR5 cells expressing endogenous RXFP1; endogenous in cells; host or cells: OVCAR5 cells
T1 sequence (Q9HBX9 1-757): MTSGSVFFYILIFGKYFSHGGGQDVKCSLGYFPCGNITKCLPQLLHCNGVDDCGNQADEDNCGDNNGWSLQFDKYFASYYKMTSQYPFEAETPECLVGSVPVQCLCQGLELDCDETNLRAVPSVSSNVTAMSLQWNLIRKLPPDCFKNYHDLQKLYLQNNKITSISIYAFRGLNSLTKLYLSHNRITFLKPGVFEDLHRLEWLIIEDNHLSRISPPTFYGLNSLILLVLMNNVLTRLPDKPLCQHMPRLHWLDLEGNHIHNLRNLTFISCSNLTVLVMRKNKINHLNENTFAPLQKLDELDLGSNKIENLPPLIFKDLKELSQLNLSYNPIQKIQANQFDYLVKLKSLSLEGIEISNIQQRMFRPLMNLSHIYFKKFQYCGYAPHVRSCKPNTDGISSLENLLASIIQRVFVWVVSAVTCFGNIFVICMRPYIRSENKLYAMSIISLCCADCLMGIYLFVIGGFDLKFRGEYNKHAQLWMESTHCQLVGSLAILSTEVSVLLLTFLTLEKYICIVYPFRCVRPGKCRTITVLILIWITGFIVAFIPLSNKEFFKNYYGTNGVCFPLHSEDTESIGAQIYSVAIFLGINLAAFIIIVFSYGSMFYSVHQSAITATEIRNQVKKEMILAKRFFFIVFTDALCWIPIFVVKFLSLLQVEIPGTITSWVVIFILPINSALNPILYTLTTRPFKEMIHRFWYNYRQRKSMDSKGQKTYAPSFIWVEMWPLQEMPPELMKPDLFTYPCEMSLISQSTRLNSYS
Put plainly: OVCAR5 cAMP assay (HTRF), RXFP1 agonist activity. The class given is cell-based. Conditions: for Emax: OVCAR-5, maximal cAMP relative to H2-relaxin maximum (100%), read-out: EMax, OVCAR 5 cells (cAMP); for EC50: OVCAR5 cells, cAMP HTRF, read-out: EC50 (nM), OVCAR 5 cells (cAMP). An outline of the steps:
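cAMP accumulation readout: after 1 mM IBMX for 40 min, endogenous-RXFP1 OVCAR5 cells got rising peptide concentrations without FCS, 30 min, 37° C, then lysis with HTRF cAMP reagents. Nonlinear regression gave EC50; Emax expressed relative to H2-relaxin maximum, same occasion.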

*1 amine or outer side, *2 acyl side, *3 side chain or, on linkers, in order; H or OH if unused. Where a SMILES comes first, the peptide text is derived from it. Side-chain parts run from the residue outwards. [ ]: non-standard residue; d: D form. The star is where a group is joined. γGlu = O=C(O)[C@H](CCC(=O)[*:2])N[*:1]; Stearoyl = CCCCCCCCCCCCCCCCCC(=O)*; Palmitoyl = CCCCCCCCCCCCCCCC(=O)*; Nle = CCCC[C@H](N)C(=O)O; AEEA = NCCOCCOCC(=O)O; Aib = CC(C)(N)C(=O)O

Regarding `CCCCCCCCCCCCCCCC(=O)N[C@@H](CCC(=O)N[C@@H](CCC(=O)N[C@@H](CCC(=O)NCCOCCOCC(=O)NCCCC[C@H](NC(=O)[C@H](CCCCN)NC(=O)[C@H](CCCNC(=N)N)NC(=O)C(C)(C)NC(=O)[C@H](CO)NC(=O)[C@H](Cc1c[nH]c2ccccc12)NC(=O)[C@@H](NC(=O)[C@H](CO)NC(=O)[C@H](CCCC)NC(=O)CNC(=O)[C@H](CCC(=O)O)NC(=O)C(C)(C)NC(=O)C(C)(C)NC(=O)[C@@H](NC(=O)[C@H](CCC(N)=O)NC(=O)[C@H](C)NC(=O)[C@H](CCCNC(=N)N)NC(=O)[C@@H](NC(=O)[C@H](CCCCN)NC(=O)[C@H](CCC(=O)O)NC(=O)[C@H](CCCNC(=N)N)NC(=O)CNC(=O)[C@H](CCC(=O)O)NC(=O)[C@H](CC(C)C)NC(C)=O)C(C)C)[C@@H](C)CC)[C@@H](C)O)C(N)=O)C(=O)O)C(=O)O)C(=O)O` [compound 55] (Ac-LEGREKVRAQI[Aib][Aib]EG[Nle]STWS[Aib]RKK([AEEA-γGlu-γGlu-γGlu-Palmitoyl])-NH2), the Emax is 94%. In the case of `CCCCCCCCCCCCCCCCCC(=O)N[C@@H](CCC(=O)NCCOCCOCC(=O)NCCOCCOCC(=O)NCCCC[C@H](NC(=O)[C@H](CCCCN)NC(=O)[C@H](CCCNC(=N)N)NC(=O)C(C)(C)NC(=O)[C@H](CO)NC(=O)[C@H](Cc1c[nH]c2ccccc12)NC(=O)[C@@H](NC(=O)[C@H](CO)NC(=O)[C@H](CCCC)NC(=O)CNC(=O)[C@H](CCC(=O)O)NC(=O)C(C)(C)NC(=O)C(C)(C)NC(=O)[C@@H](NC(=O)[C@H](CCC(N)=O)NC(=O)[C@H](C)NC(=O)[C@H](CCCNC(=N)N)NC(=O)[C@@H](NC(=O)[C@H](CCCCN)NC(=O)[C@H](CCC(=O)O)NC(=O)[C@H](CCCNC(=N)N)NC(=O)CNC(=O)[C@H](CCC(=O)O)NC(=O)[C@H](CC(C)C)NC(C)=O)C(C)C)[C@@H](C)CC)[C@@H](C)O)C(N)=O)C(=O)O` [compound 56] (Ac-LEGREKVRAQI[Aib][Aib]EG[Nle]STWS[Aib]RKK([AEEA-AEEA-γGlu-Stearoyl])-NH2), the Emax is 95%. For `CCCCCCCCCCCCCCCC(=O)N[C@@H](CCC(=O)N[C@@H](CCC(=O)NCCOCCOCC(=O)NCCOCCOCC(=O)NCCCC[C@H](NC(=O)[C@H](CCCCN)NC(=O)[C@H](CCCNC(=N)N)NC(=O)C(C)(C)NC(=O)[C@H](CO)NC(=O)[C@H](Cc1c[nH]c2ccccc12)NC(=O)[C@@H](NC(=O)[C@H](CO)NC(=O)[C@H](CCCC)NC(=O)CNC(=O)[C@H](CCC(=O)O)NC(=O)C(C)(C)NC(=O)C(C)(C)NC(=O)[C@@H](NC(=O)[C@H](C)NC(=O)[C@H](C)NC(=O)[C@H](CCCNC(=N)N)NC(=O)[C@@H](NC(=O)[C@H](CCCCN)NC(=O)[C@H](CCC(=O)O)NC(=O)[C@H](CCCNC(=N)N)NC(=O)CNC(=O)[C@H](CCC(=O)O)NC(=O)[C@H](CC(C)C)NC(=O)[C@H](CCC(=O)O)NC(C)=O)C(C)C)[C@@H](C)CC)[C@@H](C)O)C(N)=O)C(=O)O)C(=O)O` [compound 57] (Ac-ELEGREKVRAAI[Aib][Aib]EG[Nle]STWS[Aib]RKK([AEEA-AEEA-γGlu-γGlu-Palmitoyl])-NH2), the EC50 stood at 4.4 nM and the Emax came out at 93%.

Regarding `CCCCCCCCCCCCCCCC(=O)N[C@@H](CCC(=O)N[C@@H](CCC(=O)N[C@@H](CCC(=O)NCCOCCOCC(=O)NCCOCCOCC(=O)NCCCC[C@H](NC(=O)[C@H](CCCCN)NC(=O)[C@H](CCCNC(=N)N)NC(=O)C(C)(C)NC(=O)[C@H](CO)NC(=O)[C@H](Cc1c[nH]c2ccccc12)NC(=O)[C@@H](NC(=O)[C@H](CO)NC(=O)[C@H](CCCC)NC(=O)CNC(=O)[C@H](CCC(=O)O)NC(=O)C(C)(C)NC(=O)C(C)(C)NC(=O)[C@@H](NC(=O)[C@H](CCCCNC(C)=O)NC(=O)[C@H](C)NC(=O)[C@H](CCCNC(=N)N)NC(=O)[C@@H](NC(=O)[C@H](CCCCN)NC(=O)[C@H](CCC(=O)O)NC(=O)[C@H](CCCNC(=N)N)NC(=O)CNC(=O)[C@H](CCC(=O)O)NC(=O)[C@H](CC(C)C)NC(C)=O)C(C)C)[C@@H](C)CC)[C@@H](C)O)C(N)=O)C(=O)O)C(=O)O)C(=O)O` [compound 59] (Ac-LEGREKVRAK(Ac)I[Aib][Aib]EG[Nle]STWS[Aib]RKK([AEEA-AEEA-γGlu-γGlu-γGlu-Palmitoyl])-NH2), the Emax amounted to 85%. As to `CCCCCCCCCCCCCCCC(=O)N[C@@H](CCC(=O)N[C@@H](CCC(=O)N[C@@H](CCC(=O)NCCOCCOCC(=O)NCCOCCOCC(=O)NCCCC[C@H](NC(=O)[C@H](CCCCN)NC(=O)[C@H](CCCCN)NC(=O)[C@H](CCCNC(=N)N)NC(=O)C(C)(C)NC(=O)[C@H](CO)NC(=O)[C@H](Cc1c[nH]c2ccccc12)NC(=O)[C@@H](NC(=O)[C@H](CO)NC(=O)[C@H](CCCC)NC(=O)CNC(=O)[C@H](CCC(=O)O)NC(=O)C(C)(C)NC(=O)C(C)(C)NC(=O)[C@@H](NC(=O)[C@H](CCCCNC(C)=O)NC(=O)[C@H](C)NC(=O)[C@H](CCCNC(=N)N)NC(=O)[C@@H](NC(=O)[C@H](CCCCN)NC(=O)[C@H](CCC(=O)O)NC(=O)[C@H](CCCNC(=N)N)NC(=O)CNC(=O)[C@H](CCC(=O)O)NC(=O)[C@H](CC(C)C)NC(C)=O)C(C)C)[C@@H](C)CC)[C@@H](C)O)C(N)=O)C(=O)O)C(=O)O)C(=O)O` [compound 60] (Ac-LEGREKVRAK(Ac)I[Aib][Aib]EG[Nle]STWS[Aib]RKKK([AEEA-AEEA-γGlu-γGlu-γGlu-Palmitoyl])-NH2), the EC50 came to 0.11 nM and the Emax turned out to be 91%. Take `CCCCCCCCCCCCCCCC(=O)N[C@@H](CCC(=O)N[C@@H](CCC(=O)N[C@@H](CCC(=O)NCCOCCOCC(=O)NCCOCCOCC(=O)NCCCC[C@H](NC(=O)[C@H](CCCCN)NC(=O)[C@H](CCCCN)NC(=O)[C@H](CCCNC(=N)N)NC(=O)C(C)(C)NC(=O)[C@H](CO)NC(=O)[C@H](Cc1c[nH]c2ccccc12)NC(=O)[C@@H](NC(=O)[C@H](CO)NC(=O)[C@H](CCCCNC(C)=O)NC(=O)CNC(=O)[C@H](CCC(=O)O)NC(=O)C(C)(C)NC(=O)C(C)(C)NC(=O)[C@@H](NC(=O)[C@H](CCCCNC(C)=O)NC(=O)[C@H](C)NC(=O)[C@H](CCCNC(=N)N)NC(=O)[C@@H](NC(=O)[C@H](CCCCN)NC(=O)[C@H](CCC(=O)O)NC(=O)[C@H](CCCNC(=N)N)NC(=O)CNC(=O)[C@H](CCC(=O)O)NC(=O)[C@H](CC(C)C)NC(C)=O)C(C)C)[C@@H](C)CC)[C@@H](C)O)C(N)=O)C(=O)O)C(=O)O)C(=O)O` [compound 61] (Ac-LEGREKVRAK(Ac)I[Aib][Aib]EGK(Ac)STWS[Aib]RKKK([AEEA-AEEA-γGlu-γGlu-γGlu-Palmitoyl])-NH2): the EC50 came out at 0.17 nM and the Emax came out at 93%. Turning to `CCCCCCCCCCCCCCCC(=O)N[C@@H](CCC(=O)N[C@@H](CCC(=O)N[C@@H](CCC(=O)NCCOCCOCC(=O)NCCOCCOCC(=O)NCCCC[C@H](NC(=O)[C@H](CCCCNC(C)=O)NC(=O)[C@H](CCCCN)NC(=O)[C@H](CCCNC(=N)N)NC(=O)C(C)(C)NC(=O)[C@H](CO)NC(=O)[C@H](Cc1c[nH]c2ccccc12)NC(=O)[C@@H](NC(=O)[C@H](CO)NC(=O)[C@H](CCCC)NC(=O)CNC(=O)[C@H](CCC(=O)O)NC(=O)C(C)(C)NC(=O)C(C)(C)NC(=O)[C@@H](NC(=O)[C@H](CCCCNC(C)=O)NC(=O)[C@H](C)NC(=O)[C@H](CCCNC(=N)N)NC(=O)[C@@H](NC(=O)[C@H](CCCCN)NC(=O)[C@H](CCC(=O)O)NC(=O)[C@H](CCCNC(=N)N)NC(=O)CNC(=O)[C@H](CCC(=O)O)NC(=O)[C@H](CC(C)C)NC(C)=O)C(C)C)[C@@H](C)CC)[C@@H](C)O)C(N)=O)C(=O)O)C(=O)O)C(=O)O` [compound 62] (Ac-LEGREKVRAK(Ac)I[Aib][Aib]EG[Nle]STWS[Aib]RKK(Ac)K([AEEA-AEEA-γGlu-γGlu-γGlu-Palmitoyl])-NH2), the Emax turned out to be 87%. Turning to `CCCCCCCCCCCCCCCC(=O)N[C@@H](CCC(=O)N[C@@H](CCC(=O)N[C@@H](CCC(=O)NCCOCCOCC(=O)NCCOCCOCC(=O)NCCOCCOCC(=O)NCCOCCOCC(=O)NCCCC[C@H](NC(=O)[C@H](CCCCNC(C)=O)NC(=O)[C@H](CCCCN)NC(=O)[C@H](CCCNC(=N)N)NC(=O)C(C)(C)NC(=O)[C@H](CO)NC(=O)[C@H](Cc1c[nH]c2ccccc12)NC(=O)[C@@H](NC(=O)[C@H](CO)NC(=O)[C@H](CCCC)NC(=O)CNC(=O)[C@H](CCC(=O)O)NC(=O)C(C)(C)NC(=O)C(C)(C)NC(=O)[C@@H](NC(=O)[C@H](CCCCNC(C)=O)NC(=O)[C@H](C)NC(=O)[C@H](CCCNC(=N)N)NC(=O)[C@@H](NC(=O)[C@H](CCCCN)NC(=O)[C@H](CCC(=O)O)NC(=O)[C@H](CCCNC(=N)N)NC(=O)CNC(=O)[C@H](CCC(=O)O)NC(=O)[C@H](CC(C)C)NC(C)=O)C(C)C)[C@@H](C)CC)[C@@H](C)O)C(N)=O)C(=O)O)C(=O)O)C(=O)O` [compound 64] (Ac-LEGREKVRAK(Ac)I[Aib][Aib]EG[Nle]STWS[Aib]RKK(Ac)K([AEEA-AEEA-AEEA-AEEA-γGlu-γGlu-γGlu-Palmitoyl])-NH2), the EC50 came out at 0.2 nM and the Emax was 81%.

The values above are taken from patent US10988523B2, “Modified lipidated Relaxin B chain peptides and their therapeutic use” (Sanofi, priority 2018, dated 2021).
